Columns and labels:
[1] = biological target: BTK enzyme (recombinant full-length BTK, hBTK) (Homo sapiens (Human), UniProt Q06187); experiment: Btk enzyme activity assay, LANCE TR-FRET; format: biochemical; conditions: 50 pM hBTK, 2 μM biotin-A5-peptide, 25 μM ATP; 60 minute compound & enzyme incubation; read-out: BTK binding IC50
Protocol: Btk Enzyme Activity Assay Methods
BTK enzymatic activity was determined with the LANCE (Lanthanide Chelate Excite) TR-FRET (Time-resolved fluorescence resonance energy transfer) assay. […] After 60 minutes incubation with detection reagents, reaction plates were read on a PerkinElmer EnVision plate reader using standard TR-FRET protocol.

[2] = test system: HeLa cells; experiment: [3H] Adenosine uptake assay; format: cell-based; conditions: Homo sapiens, HeLa, accumulation of tritiated adenosine into HeLa cells; compound concentration range 10 μM to 0.032 nM; read-out: ADU inhibition IC50 (adenosine uptake inhibition potency)
Outline: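 Accumulation of tritiated adenosine in adherent HeLa cells, detected by scintillant-plate coincidence counting, gives IC50 via 4-parameter robust fit. Compound (constant 0.25% DMSO) applied 30 min ahead, then 60 min radiolabel exposure (added from 500 nM solution), ambient conditions, HBSS with 5% FBS.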

Chain of BTK enzyme (recombinant full-length BTK, hBTK) (Q06187 whole entry): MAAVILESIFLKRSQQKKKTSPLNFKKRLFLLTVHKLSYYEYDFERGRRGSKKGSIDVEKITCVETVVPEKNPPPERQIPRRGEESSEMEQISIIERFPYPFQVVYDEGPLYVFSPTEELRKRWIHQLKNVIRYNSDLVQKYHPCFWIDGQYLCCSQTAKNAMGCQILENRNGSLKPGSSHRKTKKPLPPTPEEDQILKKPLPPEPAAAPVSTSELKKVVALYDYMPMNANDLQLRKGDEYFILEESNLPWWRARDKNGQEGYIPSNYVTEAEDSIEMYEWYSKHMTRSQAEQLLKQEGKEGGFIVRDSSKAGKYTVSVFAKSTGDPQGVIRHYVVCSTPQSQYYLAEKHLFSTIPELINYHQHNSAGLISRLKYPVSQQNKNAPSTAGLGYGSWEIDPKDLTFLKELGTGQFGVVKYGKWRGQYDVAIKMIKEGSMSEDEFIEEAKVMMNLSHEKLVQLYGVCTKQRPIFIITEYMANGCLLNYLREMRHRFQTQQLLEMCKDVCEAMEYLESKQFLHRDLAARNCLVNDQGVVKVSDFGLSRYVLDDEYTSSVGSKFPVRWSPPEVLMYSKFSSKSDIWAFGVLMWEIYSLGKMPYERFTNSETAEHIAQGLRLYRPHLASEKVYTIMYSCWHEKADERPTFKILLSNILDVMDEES

IC50 [1] [nM] | IC50 [2] [µM] | SMILES
1.7 | 5.1 | CC(C)(C(=O)O)C1CCC(c2nc(-c3ccc(C(=O)Nc4cc(C(F)(F)F)ccn4)cc3)c3c(N)nccn23)C1 (stereo not shown) [Example 95, 2-{3-[8-amino-1-(4-{[4-(trifluoromethyl)pyridin-2-yl]carbamoyl}phenyl)imidazo[1,5-a]pyrazin-3-yl]cyclopentyl}-2-methylpropanoic acid]
3.2 | 10 | Nc1nccn2c([C@H]3CC[C@H]4[C@H](C(=O)O)[C@H]43)nc(-c3ccc(C(=O)Nc4cc(C(F)(F)F)ccn4)cc3)c12 [Example 57, (1R,2S,5R,6S)-2-[8-amino-1-(4-{[4-(trifluoromethyl)pyridin-2-yl]carbamoyl}phenyl)imidazo[1,5-a]pyrazin-3-yl]bicyclo[3.1.0] hexane-6-carboxylic acid]
4 | 10 | CCOc1cc(C(=O)Nc2cc(C(F)(F)F)ccn2)c(F)cc1-c1nc(C2(C)CCC(C)(C(=O)O)CC2)n2ccnc(N)c12 (stereo not shown) [Example 120, 4-[8-amino-1-(2-ethoxy-5-fluoro-4-{[4-(trifluoromethyl)pyridin-2-yl]carbamoyl}phenyl)imidazo[1,5-a]pyrazin-3-yl]-1,4-dimethylcyclohexane-carboxylic acid]
0.39 | 10 | Nc1nccn2c([C@@H]3CCC[C@H](C(=O)O)C3)nc(-c3ccc(C(=O)Nc4cc(C(F)(F)F)ccn4)cc3F)c12 [Example 10, (1S,3R)-3-[8-amino-1-(2-fluoro-4-{[4-(trifluoromethyl)pyridin-2-yl]carbamoyl}phenyl)imidazo [1,5-a]pyrazin-3-yl]cyclohexane-carboxylic acid]
0.51 | 3.24 | CC(C)[C@]1(C(=O)O)CC[C@H](c2nc(-c3ccc(C(=O)Nc4cc(C(F)(F)F)ccn4)cc3Cl)c3c(N)nccn23)C1 [Example 92, (1S,3S)-3-[8-amino-1-(2-chloro-4-{[4-(trifluoromethyl)pyridin-2-yl]carbamoyl}phenyl)imidazo[1,5-a]pyrazin-3-yl]-1-(1-methylethyl) cyclopentane-carboxylic acid]
0.5 | 2.77 | CC1(C(=O)O)CCC(C)(c2nc(-c3ccc(C(=O)Nc4cc(C(F)(F)F)ccn4)cc3F)c3c(N)nccn23)CC1 (stereo not shown) [Example 134, 4-[8-amino-1-(2-fluoro-4-{[4-(trifluoromethyl)pyridin-2-yl]carbamoyl}phenyl)imidazo[1,5-a]pyrazin-3-yl]-1,4-dimethylcyclohexane-carboxylic acid]
0.91 | 10 | Nc1nccn2c(N3CC[C@H](C(=O)O)C3)nc(-c3ccc(C(=O)Nc4cc(C(F)(F)F)ccn4)cc3)c12 [Example 39, (3S)-1-[8-amino-1-(4-{[4-(trifluoromethyl)pyridin-2-yl]carbamoyl}phenyl)imidazo[1,5-a]pyrazin-3-yl]pyrrolidine-3-carboxylic acid]
760 | 10 | Nc1nccn2c([C@@H]3C[C@@H]3C(=O)O)nc(-c3ccc(C(=O)Nc4cc(C(F)(F)F)ccn4)cc3)c12 [Example 167, (1S,2R)-2-[8-amino-1-(4-{[4-(trifluoromethyl)pyridin-2-yl]carbamoyl}phenyl)imidazo[1,5-a]pyrazin-3-yl]cyclopropane-carboxylic acid]
3.2 | 5.86 | COc1cc(C(=O)Nc2cc(C(F)(F)F)ccn2)ccc1-c1nc([C@H]2CN(C3CC(C(=O)O)C3)[C@@H](C)CO2)n2ccnc(N)c12 (stereo partly drawn) [Example 185, 3-{(2R,5S)-2-[8-amino-1-(2-methoxy-4-{[4-(trifluoromethyl)pyridin-2-yl]carbamoyl}phenyl)imidazo [1,5-a]pyrazin-3-yl]-5-methylmorpholin-4-yl}cyclobutanecarboxylic acid]
4.6 | 3.92 | CC1(C)[C@@H](c2nc(-c3ccc(C(=O)Nc4cc(C(F)(F)F)ccn4)cc3)c3c(N)nccn23)CC[C@@]1(C)C(=O)O [Example 77, (1R,3S)-3-[8-amino-1-(4-{[4-(trifluoromethyl)pyridin-2-yl]carbamoyl}phenyl)imidazo[1,5-a]pyrazin-3-yl]-1,2,2-trimethylcyclopentane carboxylic acid]
1.9 | 0.179 | CC1(C(=O)O)CCC(N2CCC[C@@H](c3nc(-c4ccc(C(=O)Nc5cc(C(F)(F)F)ccn5)cc4F)c4c(N)nccn34)C2)CC1 (stereo partly drawn) [Example 182, 4-{(3R)-3-[8-amino-1-(2-fluoro-4-{[4-(trifluoromethyl)pyridin-2-yl]carbamoyl}phenyl)imidazo [1,5-a]pyrazin-3-yl]piperidin-1-yl}-1-methylcyclohexanecarboxylic acid]
2.6 | 4.7 | Nc1nccn2c(N3CC[C@@H](C(=O)O)C3)nc(-c3ccc(C(=O)Nc4cc(C(F)(F)F)ccn4)cc3)c12 [Example 36, (3R)-1-[8-amino-1-(4-{[4-(trifluoromethyl)pyridin-2-yl]carbamoyl}phenyl)imidazo[1,5-a]pyrazin-3-yl]pyrrolidine-3-carboxylic acid]
7 | 10 | CC1(C)[C@@H](C(=O)O)CC[C@]1(C)c1nc(-c2ccc(C(=O)Nc3cc(C(F)(F)F)ccn3)cc2)c2c(N)nccn12 [Example 147, (1S,3S)-3-[8-amino-1-(4-{[4-(trifluoromethyl)pyridin-2-yl]carbamoyl}phenyl)imidazo[1,5-a]pyrazin-3-yl]-2,2,3-trimethylcyclopentane carboxylic acid]
0.47 | 10 | CCOc1cc(C(=O)Nc2cc(C(F)(F)F)ccn2)ccc1-c1nc(C23CCC(C(=O)O)(CC2(F)F)C(F)(F)C3)n2ccnc(N)c12 (stereo not shown) [Example 66, 4-[8-amino-1-(2-ethoxy-4-{[4-(trifluoromethyl)pyridin-2-yl]carbamoyl}phenyl)imidazo[1,5-a]pyrazin-3-yl]-2,2,5,5-tetrafluorobicyclo [2.2.2]octane-1-carboxylic acid]
8.8 | 3.65 | CCOc1cc(C(=O)Nc2cc(C(F)(F)F)ccn2)ccc1-c1nc([C@]23CC[C@](C(=O)O)(CC2O)C(O)C3)n2ccnc(N)c12 (stereo partly drawn) [Example 73, (1S,4R)-4-[8-amino-1-(2-ethoxy-4-{[4-(trifluoromethyl)pyridin-2-yl]carbamoyl}phenyl)imidazo[1,5-a]pyrazin-3-yl]-2,5-dihydroxybicyclo [2.2.2]octane-1-carboxylic acid]
2.6 | 2.48 | CC1(C(=O)O)CCCC(c2nc(-c3ccc(C(=O)Nc4cc(C5CC5)ccn4)cc3)c3c(N)nccn23)C1 (stereo not shown) [Example 153, 3-(8-amino-1-{4-[(4-cyclopropylpyridin-2-yl)carbamoyl]phenyl}imidazo[1,5-a]pyrazin-3-yl)-1-methylcyclohexane-carboxylic acid]
0.26 | 8.84 | COc1cc(C(=O)Nc2cc(C(F)(F)F)ccn2)cc(F)c1-c1nc([C@@H]2CC[C@](C)(C(=O)O)C2(C)C)n2ccnc(N)c12 [Example 115, (1S,3R)-3-[8-amino-1-(2-fluoro-6-methoxy-4-{[4-(trifluoromethyl)pyridin-2-yl]carbamoyl}phenyl)imidazo[1,5-a]pyrazin-3-yl]-1,2,2-trimethylcyclopentane carboxylic acid]

From patent US10087188B2, “Benzamide imidazopyrazine Btk inhibitors” (MERCK SHARP & DOHME CORP., priority 2014, dated 2018)
